{"source": "patent US20220273660A1", "about": "“MEK INHIBITOR FOR TREATMENT OF STROKE” (EDVINCE AB, priority 2019, published 2022)", "key": {"[1]": {"tested_on": "rat subarachnoid haemorrhage model", "assay": "Rotating pole test after SAH, intraperitoneal treatment", "format": "in vivo", "conditions": "SAH + i.p. treatment, 48 hours post-SAH", "procedure": "Gross sensorimotor function was evaluated using a rotating pole test, including a baseline evaluation on the day before induction of SAH. Briefly, movement across a 10-rpm rotating pole (45 mm diameter, 150 cm length) was evaluated with a cage at the end that contain the rat's own bedding material (“smells like home”). Rat performance was scored according to the following definitions: Low, the animal is unable to cross the pole without falling off; High, the animal can traverse the entire pole without falling off. All animals were trained to traverse the pole before surgery. Pre-SAH and on day 1 and 2 after surgery, each animal was scored twice for left and right rotation respectively, i.e. 4 counts per animal. Animals were graded by personnel blinded to the experimental groups of the animals. Data are shown percentage as % high score count/total score count.\nFor the intraperitoneal treatment (i.p) the compound was dissolved in 10% cremophor EL (Kolliphor EL) and 10% PEG400 in NaCl, which also served as vehicle. The total dose was administered as two treatments (6 hours and 24 hours). Animals were given 2.5 ml isotonic saline s.c. to avoid dehydration, immediately after surgery and in conjunction with the treatments."}, "Solubility (statement)": {"assay": "Solubility (statement)", "format": "physicochemical"}, "[2]": {"tested_on": "rat subarachnoid haemorrhage model", "assay": "Rotating pole test after SAH, intrathecal treatment", "format": "in vivo", "conditions": "SAH + i.t. treatment", "procedure": "The intrathecal (i.t.) treatment volumes were estimated for a cerebrospinal fluid (CSF) volume of approximately 90 μL (21) and the total dose was administered as three treatments (4 hours, 10 hours and 24 hours) through the PinPort in the ICP catheter placed in the cisterna magna during the surgical procedure. The first and third injections were given under fixation of the rat. Since the treatment 10 hours post-surgery was administered by a single researcher, the rats were briefly anaesthetised with isoflurane 3.5-4% (maintained at 1.75-2%) in atmospheric air/O2 (70%/30%) using a facemask, to prevent sudden movements of the rat. […]\nGross sensorimotor function was evaluated using a rotating pole test, including a baseline evaluation on the day before induction of SAH. Briefly, movement across a 10-rpm rotating pole (45 mm diameter, 150 cm length) was evaluated with a cage at the end that contain the rat's own bedding material (“smells like home”). Rat performance was scored according to the following definitions: Low, the animal is unable to cross the pole without falling off; High, the animal can traverse the entire pole without falling off. […] Pre-SAH and on day 1 and 2 after surgery, each animal was scored twice for left and right rotation respectively, i.e. 4 counts per animal. […]"}, "rat basilar arteries": {"tested_on": "rat basilar arteries", "assay": "48 h organ culture of basilar artery, endothelium function / vasodilation (carbachol, SNP, CGRP)", "format": "cell-based", "conditions": "1 μM inhibitor", "procedure": "Rats were sedated with O2/CO2 (30/70%) and sacrificed by decapitation. […] The basilar artery (BA) was carefully dissected from the brain in a physiological buffer solution followed by either OC (naïve animals) or directly mounted in a wire myograph (arteries from rats which has undergone surgical procedures). Segments were incubated for 48 hours at 37° C. in humidified 5% CO2/O2 in DMEM supplemented with streptomycin and penicillin with inhibitors or vehicle (DMSO). Culture media was changed after 24 hours.\nFor contractility measurements, both incubated BAs (ex vivo) and BAs after surgical procedure (in vivo) were cut into segments and mounted on a pair of metal wires (40 μm) in a myograph bath. The arteries from OC were mounted the same way after 48 hours in media. One wire was attached to a micro-meter screw which allows for fine adjustments of the distance between the wires, controlling the vascular tone.\nThe arterial segments were exposed two or three times with 60 mM K^+, by exchanging the buffer with a 60 mM K^+ buffer solution. To maintain equal osmolarity, a proportional amount of Na^+ had been removed from the buffer. An absolute cut-off was set at 2.0 mN K^+max for inclusion of arterial segments from rats that underwent the surgical procedure. Endothelium function was evaluated with the addition of 5-HT (3.10^−7 M) followed by carbachol (10^−5 M). For arteries from the OC the protocol was as followed: first a cumulative concentration-response curve to sarafotoxin 6C (S6c, 10^−14-10^−7 M), followed by a concentration-response curve to endothelin-1 (ET-1, 10^−14-10^−7 M). At peak ET-1 (10^−7 M), the buffer was changed to a Ca^2+-free buffer containing 10^−7 M ET-1 and nimodipine (L-type of voltage dependent Ca^2+ channel entry blocker, 10^−7 M). […] When vasodilation was investigated arteries was precontracted with U46619 (1.10^−7-3.10^−7 M) or K^+ (41 mM) and cumulative concentration-response curves was performed by adding calcitonin gene-related peptide (CGRP, 10^−12-10^−7 M), carbachol (10^−10-10^−5 M) or SNP (10^−11-10^−4 M)."}}, "note": "Entries after “also recorded” stand apart in the source; their conditions may differ."}
{"smiles": "CC(=O)Nc1cccc(-n2c(=O)n(C3CC3)c(=O)c3c(Nc4ccc(I)cc4F)n(C)c(=O)c(C)c32)c1", "note": "[trametinib]", "values": [{"measurement": "rotating pole Score48 h (% high score count/total score count)", "setting": "[1]", "result": 100, "unit": "%"}, {"measurement": "solubility", "setting": "Solubility (statement)", "result": "excellent solubility"}, {"measurement": "neurological assessment scores (rotating pole test)", "setting": "[2]", "result": "Improved neurological assessment scores"}, {"measurement": "rotating pole Score48 h (% high score count/total score count)", "setting": "[2]; 48 hours post-SAH, 10 rpm", "result": 96, "unit": "%"}, {"measurement": "Emax following NO donor sodium nitroprusside (SNP)", "setting": "rat basilar arteries; 48 h OC", "result": "significant differences in the Emax"}, {"measurement": "response to CGRP", "setting": "rat basilar arteries; 48 h OC", "result": "No differences"}, {"measurement": "vasodilation in response to carbachol (10^-10-10^-5 M)", "setting": "rat basilar arteries; 48 h OC, precontracted with U46619 or K+", "result": "improved vasodilation"}, {"measurement": "endothelium function (10-5 M carbachol on arteries precontracted with 5-HT) vs DMSO", "setting": "rat basilar arteries; 48 h organ culture", "result": "significant better endothelium function; also recorded: significant increase"}]}
